Two compounds from patent US11419856B2, “Pharmaceutical combinations for use in the treatment of neoplastic diseases” (Basilea Pharmaceutica International AG, priority 2017, dated 2022) can be followed below.

One experiment relates to Jurkat-GFP cells. Nature of the experiment: Apoptosis assay (EGFP/FACS) in Jurkat-GFP cells. It is filed as cell-based, human. Conditions: data not shown; for EC50: Homo sapiens, read-out: EC50, induction of apoptosis; for maximal apoptosis induction: maximum of dose-response curve. As for the experimental part:
(§1) The following human cell line was used: MDA-MB-231 (ATCC: HTB-26). In addition the following enhanced green fluorescent protein (EGFP)-transfected human cell lines were used: NCI-H460 (ATCC: HTB-177) (H460GFP) and Jurkat (ATCC: TIB-152) (JurkatGFP). NCI-H460 and Jurkat cell lines were cultured in RPMI-1640 tissue culture medium containing 10% (v/v) fetal calf serum, 2 mM glutamine, non-essential amino acids and 50 μg/ml penicillin/streptomycin (Complete medium) (Sigma, Buchs, Switzerland). The MDA-MB-231 cell line was cultured in Dulbecco's Modified Eagle Medium (DMEM) (high glucose) tissue culture medium containing 10% (v/v) fetal calf serum, 1 mM sodium pyruvate and 50 μg/ml penicillin/streptomycin (i.e. Complete Medium) (Sigma, Buchs, Switzerland).
(§2) General growth conditions were 37° C. and 7.5% CO2. For the microtubule destabilization assay cell lines were cultured in 5% CO2.
The assays were performed in commercially available sterile 96-well U-bottom or 24-well flat-bottom tissue culture plates (Falcon). A defined number of test cells expressing enhanced green fluorescent protein (EGFP) (H460 cells: 600 μl of 30′000 cells/ml in 24-well flat-bottom plates, Jurkat cells: 600 μl of 400′000 cells/ml in […]) were plated either 24 hours before treatment in case of the adherent H460 cell line, or one hour prior to the start of the treatment for Jurkat cells. Between seeding and addition of compounds, the cells were incubated at 37° C. under 7.5% CO2. Subsequently, BAL27862 and eribulin (Halaven®, Ch.-B. 60363CRN1, Eisai) which were dissolved in Complete Medium were both added from stock solutions at 5× the final concentration in 200 μl to the wells, resulting in a final well-volume of 1 ml. The test plates were then incubated for the indicated time. For time course experiments with Jurkat cells, the 96-well plates were removed shortly at the indicated time from the incubator, shaken in order to suspend the cells and an aliquot of 200 μl cell suspension was then transferred to a 96-well U-bottom plate and measured immediately on a fluorescence-activated cell sorting (FACS)-Canto II with a high through-put sampler (HTS)-module. […]
The quantification of the relative amount of apoptotic cells within a cell population was determined according to the Reference of Strebel et al., Cytometry 2001, 43(2), Green Fluorescent Protein as Novel Tool to Measure Apoptosis and Necrosis). By monitoring the EGFP fluorescence activity excited at […] and measured at […] on a FACS-Cantoll™, it is possible to distinguish between proliferating cells, apoptotic cells and necrotic cells within the same cell population. […] As a readout the relative abundance of the cells belonging to M2 (apoptotic population) were expressed.

The test system of experiment [1] is microtubules (soluble vs polymerized tubulin), MDA-MB-231 cells. The experiment is described as follows: Cellular microtubule destabilization assay and immunoblotting for tubulin. Particulars: 2 hours. It is filed as cell-based, human. As for the experimental part:
as §1, §2
Trypsinized MDA-MB-231 cells (500′000 cells per treatment) were treated in 1 mL medium containing BAL27862 and/or eribulin (Halaven®, Ch.-B. 60363CRN1, Eisai) or appropriate vehicle control (dimethylsulfoxide (DMSO)) for 2 hours in a water bath at 37° C. […]

One may read the EC50 as the concentration at which the effect is half-maximal. Take `N#CCCNc1nonc1-c1nc2ccccc2n1CC(=O)c1ccc(N)cc1` [BAL27862, 3-(4-{1-[2-(4-Amino-phenyl)-2-oxo-ethyl]-1H-benzoimidazol-2-yl}-furazan-3-ylamino)-propionitrile]: in the experiment with Jurkat-GFP cells, the concentration giving a half-maximal response (EC50) was 15 nM and the maximal apoptosis induction is recorded as 70-80%. For the same compound, the “microtubule destabilizing activity (soluble vs particulate tubulin, Western blot)” value in experiment [1] (single agent 20 and 30 nM (FIG. 5A)) is “concentration-dependent but incomplete destabilizing effect”.

Regarding `C=C1C[C@@H]2CC[C@@]34C[C@H]5O[C@H]6[C@@H](O3)[C@H]3O[C@H](CC[C@@H]3O[C@H]6[C@H]5O4)CC(=O)C[C@@H]3[C@@H](OC)[C@@H](C[C@H](O)CN)O[C@H]3C[C@H]3O[C@@H](CC[C@@H]1O2)C[C@@H](C)C3=C.CS(=O)(=O)O` [Eribulin, (2R, 3R, 3aS, 7R, 8aS, 9S, 10aR, 11S, 12R, 13aR, 13bS, 15S, 18S, 21S, 24S, 26R, 28R, 29aS)-2-[(2S)-3-Amino-2-hydroxypropyl]-3-methoxy-26-methyl-20,27-dimethylidenehexacosahydro-11,15:18,21:24,28-triepoxy-7,9-ethano-12,15-methano-9H,15H-furo[3,2-i]furo[2′,3′:5,6]pyrano[4,3-b][1,4]dioxacyclopentacosin-5(4H)-one methanesulfonate (salt)], in the experiment on Jurkat-GFP cells, the EC50 came out at 0.8 nM and the maximal apoptosis induction result was “about 70%”. Further, the “microtubule destabilizing activity (soluble vs particulate tubulin, Western blot)” value in experiment [1] (single agent 0.2 nM and 2 nM) is “only a small increase in soluble tubulin”.
